Measurements from patent US9302999B2, “Substituted triazoles as herbicides” (E. I. DU PONT DE NEMOURS AND COMPANY, priority 2012, dated 2016).

Columns and labels:
Type in all cases: in vivo
[1] = test system: barnyardgrass (Echinochloa crus-galli); experiment: Test A pre-/postemergence: barnyardgrass; conditions: for Barnyardgrass plant response rating: Postemergence; for Plant response rating, Barnyardgrass: Preemergence
Summary of the method: (§1)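 Visual 0–100 injury ratings (0 no effect, 100 complete control) taken about ten days after treatment, relative to untreated controls. Preemergence treatment was a directed soil spray; postemergence plants were 2–10 cm tall at one- to two-leaf stage. Soil: loam/sand blend.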

[2] = test system: crabgrass, large (large crabgrass, Digitaria sanguinalis); experiment: Test A pre-/postemergence: crabgrass, large; conditions: for Crabgrass, Large plant response rating: Postemergence; for Plant response rating, Crabgrass, Large: Preemergence
Summary of the method: as §1

[3] = test system: foxtail, giant (giant foxtail, Setaria faberii); experiment: Test A pre-/postemergence: foxtail, giant; conditions: for Foxtail, Giant plant response rating: Postemergence; for Plant response rating, Foxtail, Giant: Preemergence
Summary of the method: as §1

[4] = test system: morningglory (Ipomoea spp.); experiment: Test A pre-/postemergence: morningglory; conditions: for Morningglory plant response rating: Postemergence; for Plant response rating, Morningglory: Preemergence
Summary of the method: as §1

[5] = test system: pigweed (Amaranthus retroflexus); experiment: Test A pre-/postemergence: pigweed; conditions: for Pigweed plant response rating: Postemergence; for Plant response rating, Pigweed: Preemergence
Summary of the method: as §1

[6] = test system: velvetleaf (Abutilon theophrasti); experiment: Test A pre-/postemergence: velvetleaf; conditions: for Velvetleaf plant response rating: Postemergence; for Plant response rating, Velvetleaf: Preemergence
Summary of the method: as §1

[7] = test system: wheat (Triticum aestivum); experiment: Test A pre-/postemergence: wheat; conditions: for Wheat plant response rating: Postemergence; for Plant response rating, Wheat: Preemergence
Summary of the method: as §1

corn (Zea mays) = experiment: Test A pre-/postemergence: corn; conditions: for Corn plant response rating: Postemergence; for Plant response rating, Corn: Preemergence
Summary of the method: as §1

rice (Oryza sativa) [8] = experiment: Test B flooded paddy: rice; conditions: Flood; 250 g ai/ha; applied to paddy water at 2-leaf stage; visually evaluated after 13 to 15 days
Description: (§2) Seeds selected from rice (Oryza sativa), sedge, umbrella (small-flower umbrella sedge Cyperus difformis), ducksalad (Heteranthera limosa), and barnyardgrass (Echinochloa crus-galli) were grown to the 2-leaf stage for testing. At time of treatment, test pots were flooded to 3 cm above the soil surface, treated by application of test compounds directly to the paddy water, and then maintained at that water depth for the duration of the test.
(§3) Treated plants and controls were maintained in a greenhouse for 13 to 15 days, after which time all species were compared to controls and visually evaluated. Plant response ratings, summarized in Table B, are based on a scale of 0 to 100 where 0 is no effect and 100 is complete control. A dash (-) response means no test result.

[9] = test system: sedge, umbrella (small-flower umbrella sedge Cyperus difformis); experiment: Test B flooded paddy: sedge, umbrella; conditions: Flood; 250 g ai/ha; applied to paddy water at 2-leaf stage; visually evaluated after 13 to 15 days
Description: as §2, §3

[10] = test system: ducksalad (Heteranthera limosa); experiment: Test B flooded paddy: ducksalad; conditions: Flood; 250 g ai/ha; applied to paddy water at 2-leaf stage; visually evaluated after 13 to 15 days
Description: as §2, §3

[11] = test system: barnyardgrass (Echinochloa crus-galli); experiment: Test B flooded paddy: barnyardgrass; conditions: Flood; 250 g ai/ha; applied to paddy water at 2-leaf stage; visually evaluated after 13 to 15 days
Description: as §2, §3

rice (Oryza sativa) [12] = experiment: Test C flooded paddy test: rice; conditions: scale 0 to 100 (0 no effect, 100 complete control)
Summary of the method: (§4)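 Visual ratings from 0 (no effect) to 100 (complete control), made against untreated controls 13 to 15 days after treatment, express plant response. Compounds went directly into paddy water over 2-leaf stage plants in pots flooded to 3 cm.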

[13] = test system: sedge, umbrella (small-flower umbrella sedge, Cyperus difformis); experiment: Test C flooded paddy test: sedge, umbrella; conditions: scale 0 to 100 (0 no effect, 100 complete control)
Summary of the method: as §4

[14] = test system: ducksalad (Heteranthera limosa); experiment: Test C flooded paddy test: ducksalad; conditions: scale 0 to 100 (0 no effect, 100 complete control)
Summary of the method: as §4

[15] = test system: barnyardgrass (Echinochloa crus-galli); experiment: Test C flooded paddy test: barnyardgrass; conditions: scale 0 to 100 (0 no effect, 100 complete control)
Summary of the method: as §4

[16] = 31 g ai/ha, visual rating on 0 to 100 scale (0 no effect, 100 complete control), approximately ten days
[17] = 125 g ai/ha, 0 to 100 scale, 0 is no effect, 100 is complete control
[18] = 31 g ai/ha, 0 to 100 scale, 0 is no effect, 100 is complete control
[19] = 125 g ai/ha, 0 to 100 scale (0 no effect, 100 complete control)
[20] = 500 g ai/ha, visual rating on 0 to 100 scale (0 no effect, 100 complete control), approximately ten days
[21] = 500 g ai/ha, 0 to 100 scale, 0 is no effect, 100 is complete control
[22] = Flood (flooded paddy test), 62 g ai/ha, visual rating after 13 to 15 days
[23] = Flood (flooded paddy test), 125 g ai/ha, visual rating after 13 to 15 days
[24] = Flood (flooded paddy test), 250 g ai/ha, visual rating after 13 to 15 days

Compound: COc1nn(-c2ccc(F)cc2)nc1Oc1ccnc(C(F)(F)F)c1 [Compound 34]
- Barnyardgrass plant response rating [1, 16]: 0
- Barnyardgrass plant response rating [1, 17]: 10
- Plant response rating, Barnyardgrass [1, 18]: 0
- Plant response rating, Barnyardgrass [1, 19]: 0
- Crabgrass, Large plant response rating [2, 16]: 10
- Crabgrass, Large plant response rating [2, 17]: 20
- Plant response rating, Crabgrass, Large [2, 18]: 0
- Plant response rating, Crabgrass, Large [2, 19]: 50
- Foxtail, Giant plant response rating [3, 16]: 10
- Foxtail, Giant plant response rating [3, 17]: 20
- Plant response rating, Foxtail, Giant [3, 18]: 0
- Plant response rating, Foxtail, Giant [3, 19]: 30
- Morningglory plant response rating [4, 16]: 20
- Morningglory plant response rating [4, 17]: 30
- Plant response rating, Morningglory [4, 18]: 0
- Plant response rating, Morningglory [4, 19]: 0
- Pigweed plant response rating [5, 16]: 20
- Pigweed plant response rating [5, 17]: 80
- Plant response rating, Pigweed [5, 18]: 0
- Plant response rating, Pigweed [5, 19]: 10
- Velvetleaf plant response rating [6, 16]: 0
- Velvetleaf plant response rating [6, 17]: 10
- Plant response rating, Velvetleaf [6, 18]: 0
- Plant response rating, Velvetleaf [6, 19]: 0
- Wheat plant response rating [7, 16]: 0
- Wheat plant response rating [7, 17]: 0
- Plant response rating, Wheat [7, 18]: 0
- Plant response rating, Wheat [7, 19]: 0
- Corn plant response rating (corn (Zea mays); [16]): 10
- Corn plant response rating (corn (Zea mays); [17]): 10
- Plant response rating, Corn (corn (Zea mays); [18]): 0
- Plant response rating, Corn (corn (Zea mays); [19]): 0
- Plant response rating, Rice (0 to 100 scale, 0 is no effect, 100 is complete control) (rice (Oryza sativa) [8]): 35
- Plant response rating, Sedge, Umbrella (0 to 100 scale, 0 is no effect, 100 is complete control) [9]: 90
- Plant response rating, Ducksalad (0 to 100 scale, 0 is no effect, 100 is complete control) [10]: 75
- Plant response rating, Barnyardgrass (0 to 100 scale, 0 is no effect, 100 is complete control) [11]: 65

Compound: Cc1nn(-c2cccc(C(F)(F)F)n2)nc1C(=O)c1cccc(C(F)(F)F)c1 [Compound 57]
- Barnyardgrass plant response rating [1, 17]: 0
- Barnyardgrass plant response rating [1, 20]: 0
- Plant response rating, Barnyardgrass [1, 19]: 0
- Plant response rating, Barnyardgrass [1, 21]: 0
- Crabgrass, Large plant response rating [2, 17]: 0
- Crabgrass, Large plant response rating [2, 20]: 10
- Plant response rating, Crabgrass, Large [2, 19]: 0
- Plant response rating, Crabgrass, Large [2, 21]: 0
- Foxtail, Giant plant response rating [3, 17]: 0
- Foxtail, Giant plant response rating [3, 20]: 0
- Plant response rating, Foxtail, Giant [3, 19]: 0
- Plant response rating, Foxtail, Giant [3, 21]: 0
- Morningglory plant response rating [4, 17]: 0
- Morningglory plant response rating [4, 20]: 0
- Plant response rating, Morningglory [4, 19]: 0
- Plant response rating, Morningglory [4, 21]: 0
- Pigweed plant response rating [5, 17]: 0
- Pigweed plant response rating [5, 20]: 10
- Plant response rating, Pigweed [5, 19]: 0
- Plant response rating, Pigweed [5, 21]: 0
- Velvetleaf plant response rating [6, 17]: 0
- Velvetleaf plant response rating [6, 20]: 0
- Plant response rating, Velvetleaf [6, 19]: 0
- Plant response rating, Velvetleaf [6, 21]: 0
- Wheat plant response rating [7, 17]: 0
- Wheat plant response rating [7, 20]: 0
- Plant response rating, Wheat [7, 19]: 0
- Plant response rating, Wheat [7, 21]: 0
- Corn plant response rating (corn (Zea mays); [17]): 0
- Corn plant response rating (corn (Zea mays); [20]): 0
- Plant response rating, Corn (corn (Zea mays); [19]): 0
- Plant response rating, Corn (corn (Zea mays); [21]): 0
- Plant response rating, Rice (rice (Oryza sativa) [12]; [22]): 0
- Plant response rating, Rice (rice (Oryza sativa) [12]; [23]): 0
- Plant response rating, Rice (rice (Oryza sativa) [12]; [24]): 0
- Plant response rating, Rice (rice (Oryza sativa) [12]; Flood, 31 g ai/ha): 0
- Plant response rating, Sedge, Umbrella [13, 22]: 0
- Plant response rating, Sedge, Umbrella [13, 23]: 0
- Plant response rating, Sedge, Umbrella [13, 24]: 0
- Plant response rating, Sedge, Umbrella ([13]; Flood, 31 g ai/ha): 0
- Plant response rating, Ducksalad [14, 22]: 0
- Plant response rating, Ducksalad [14, 23]: 0
- Plant response rating, Ducksalad [14, 24]: 0
- Plant response rating, Ducksalad ([14]; Flood, 31 g ai/ha): 0
- Plant response rating, Barnyardgrass [15, 22]: 0
- Plant response rating, Barnyardgrass [15, 23]: 0
- Plant response rating, Barnyardgrass [15, 24]: 0
- Plant response rating, Barnyardgrass ([15]; Flood, 31 g ai/ha): 0
